Assay [1] has as its system MCF-7 cells. In words: Impedance-based real time cell analysis (XCELLIGENCE) of MCF-7 cells treated with Paclitaxel. Details: species or system human. Particulars: 12.5 nM Paclitaxel. From the text:
In this example, we have investigated gene expression profiles of human MCF-7 breast cancer cells (human adenocarcinoma breast cancer cell line) obtained from ATCC (passage number: 15, cell number: 5000 cells per well), maintained in MEM (32360, Gibco)+10% FCS (30-3702, PAN)+Na-Pyruvat (PO4-43100, PAN)+Nonessential amino acids (P08-32100, PAN) at time points that are indicated by changes in cell characteristics as visualized by changes of impedance (cell indices) measurements upon drug addition. Accordingly, gene expression profiles were determined at 6 h, 24 h, 72 h and 147 h upon Paclitaxel administration. […] It includes genes involved in various biological functions such as cell cycle regulation and cell proliferation, apoptosis, signal transduction and transcriptional regulation, fatty acid and sterol metabolism and IFN-mediated signaling (Bani, M., R., et al., Molecular Cancer Therapeutics 3(2) (2004) 111-121). With respect to the two time points (6 h and 24 h upon drug administration) microarray studies had been performed by other groups and we were able to reproduce 70% of their results (Bani, M., R., et al., Molecular Cancer Therapeutics 3(2) (2004) 111-121). In addition, we determined mRNA levels at two additional time points (72 h and 147 h upon drug administration) during prolonged drug exposure of cells.
Procedure: Seeding, Growth. […]
5000 MCF-7 cells were seeded per well and 24 h later treated with a final concentration of 12.5 nM Paclitaxel (dissolved in DMSO). […] The Paclitaxel concentration we applied in this experiment represents twice the IC50-value of this drug for MCF-7 cells and had been determined in an dose-response experiment (Paclitaxel titration) with the XCELLIGENCE system and an appropriate tool of the XCELLIGENCE software SP1.0.0.0807 (data not shown).

The subject of assay [2] is MCF-7 cells. In words: Gene expression profiling by q-RT-PCR (LIGHTCYCLER 480) of Paclitaxel-treated MCF-7 cells. The format is cell-based, human. The procedure:
We have performed gene expression profiling experiments of MCF-7 cells treated with Paclitaxel for a period of approximately 150 h. Within this example the gene expression of 20 different genes (gene accession numbers in brackets) were monitored:
We intended to determine and reproduce gene expression changes with time upon drug treatment, the majority of which had been observed and described before by others in an independent in vivo-study based on DNA microarray technique using ovarian carcinoma xenografts ([…], M., R., et al., Molecular Cancer Therapeutics 3(2) (2004) 111-121; Boschke, C., B., et al., Uni Tubingen (2008)). The time points for our pharmacokinetic screens have been chosen depending on cellular changes in response to Paclitaxel-treatment which were monitored by impedance-based real time cell analysis using the XCELLIGENCE system. Independent from the quality and extent of these cellular changes we harvested non-treated controls and drug-treated cells at their appropriate time points (6, 24, 72 and 147 h), isolated the mRNA by means of the MAGNA PURE System, reverse transcribed the total mRNA into cDNA using a common Thermocycler, pooled and diluted the cDNA samples and amplified the predefined set of specific genes as well as house keeping genes in triplicates by q-RT-PCR making use of the LIGHTCYCLER 480 System. Necessary primer pairs were synthesized and tested for functionality in-house in combination with a bioinformatically determined UPL probe (data not shown). The LIGHTCYCLER software 1.5 allowed the relative quantification of the selected mRNA abundance under Paclitaxel-treated conditions with respect to the corresponding non-treated situation (reference). Results are corrected by the values determined for internal standard genes (stably expressed house keeping genes), like β-Actin, β-Globin and GAPDH. […]

Assay [3] relates to HT29 cells. In words: Cell Index monitoring (XCELLIGENCE RTCA SP) of HT29 cells treated with paclitaxel. The assay is classed as cell-based. The note with it: 50 nM paclitaxel. The procedure: HT29 cells were cultivated in parallel in McCoy's medium in either T75 cell culture bottles (for RNA isolation) or an E-Plate 96 (for cell growth monitoring) and in three regular microtiter plates (for WST-1 assay).
The surface of the bottom of a single well of the E-Plate 96 is given with approx. 0.2 cm^2. T75 cell culture bottles have 75 cm^2.
After 24 hours incubation at 37° C. paclitaxel was added to a final concentration of 50 nM. As the 2 mM paclitaxel stock was dissolved in DMSO, control cells were treated with DMSO to a final concentration of 0.0025%. In addition cells treated with medium only were monitored in parallel.
All cells were further incubated at 37° C. The growth of the cells was monitored real time on the RTCA SP Station over the whole course of the experiment (FIG. 3).
To ensure that untreated cells are within the early logarithmic growth phase at the time point of paclitaxel treatment, cells were treated with 50 nM paclitaxel at approx. ⅓ of their maximum Cell Index at 20 hours after seeding.

Assay [4] deals with HT29 cells. In words: qPCR with RealTime Ready Human Apoptosis Panel, 96 in paclitaxel-treated HT29 cells. The format is cell-based. The procedure: (§1) Cells were harvested for RNA isolation after one, two, four and 24 hours. Cell number was determined and portions of 10^6 cells were used for RNA isolation applying the High Pure RNA Isolation Kit following the manufacturer's instruction.
(§2) From each RNA population 1 μg total RNA was used for cDNA synthesis with the Transcriptor First Strand cDNA Synthesis Kit.
(§3) The total yield of one cDNA synthesis reaction starting from 1 μg RNA was used as template for each RealTime ready Human Apoptosis Panel, 96 or RealTime ready Human Cell Cycle Panel, 96. Total PCR reaction volume per well was 20 μl with Light Cycler480 Probes Master. The easy-to-use macro for the panel containing PCR protocol, sample setup and analysis was applied on LIGHTCYCLER480 software 1.5.
(§4) Four time points, one, two, four and twenty four hours were selected for qPCR runs on the LIGHTCYCLER480 system using the RealTime Ready Human Apoptosis Panel, 96 (FIG. 5) and the RealTime Ready Human Cell Cycle Panel, 96 (FIG. 7). Gene names corresponding to the numbers that can be found in the package insert of both panels (Roche Applied Science).
On the technique in general: In qPCR the cycle at which signal appears reflects the starting amount.

In assay [5] the test system is HT29 cells. In words: qPCR with RealTime Ready Human Cell Cycle Panel, 96 in paclitaxel-treated HT29 cells. The assay is classed as cell-based. The note with it: 50 nM paclitaxel vs DMSO control; time points 1, 2, 4, 24 hours. The procedure:
as §1, §2, §3, §4

With `CC(=O)O[C@H]1C(=O)[C@@]2(C)[C@H]([C@H](OC(=O)c3ccccc3)[C@]3(O)C[C@H](OC(=O)[C@H](O)[C@@H](NC(=O)c4ccccc4)c4ccccc4)C(C)=C1C3(C)C)[C@]1(OC(C)=O)CO[C@@H]1C[C@@H]2O` [Paclitaxel], the “time upon drug addition at which proliferation curve switches from descending to ascending course” value with MCF-7 cells [1] is given as “approximately 20 h”. Besides, the “course of proliferation curve (impedance / cell index) versus control” value with MCF-7 cells [1] (control 0.1% DMSO) was “lower impedance or cell index values”. For the same compound, the “time upon drug treatment at which proliferation curve again begins to descend” value in the assay with MCF-7 cells [1] (descent continues up to ca. 150 h) was “around 70 h”. In the assay on MCF-7 cells [2] (6 h upon drug addition, 12.5 nM Paclitaxel, vs non-treated), the “gene expression changes of investigated genes” value is given as “only small changes in expression”. Also, in the assay with MCF-7 cells [2] (24 h after Paclitaxel treatment, 12.5 nM), the “gene expression changes of selected genes (e.g. CDKN1A, FOS, PIG8, TOP2A, MADH2)” value is on record as “become more obvious”. In addition, the “gene expression changes (ISG15, IFITM1, BNIP3, SLUG, ARF-1, CDC2, PLAB, IDI1)” value in the assay with MCF-7 cells [2] (later stages (72 and 147 h) of Paclitaxel treatment, 12.5 nM) is given as “strongest gene expression changes”. Also, the “time after treatment to reach minimum Cell Index” value in the assay with HT29 cells [3] is reported as “approx. 24 hours”. In addition, the “Cell Index (normalized)” value in the assay on HT29 cells [3] (24 hours after treatment) was “zero”. The “Cell Index change” value in the assay on HT29 cells [3] (within the first hour after treatment) is recorded as “slightly increased”. For the same compound, in the assay on HT29 cells [4] (50 nM paclitaxel vs DMSO control, all time points compared), the “number of genes significantly (more than 4 times) up/down regulated” value amounted to 6 genes. Also, the “time of most significant alteration of expression level of apoptosis related genes” value in the assay with HT29 cells [4] (50 nM paclitaxel vs DMSO control, time points 1, 2, 4, 24 hours) is “within the first hour”. Further, the “significant gene expression changes compared to DMSO control” value in the assay with HT29 cells [4] (two and four hours after paclitaxel treatment, 50 nM) is “no genes show significant expression changes”. Besides, the “time of most dramatic effects on cell cycle gene expression” value in the assay on HT29 cells [5] was “within the first four hours”.

(Values after patent US20100255469A1, “Cell monitoring and molecular analysis” (priority 2008, published 2010).)
